Source: patent US20060205599A1, “Herbicide combinations comprising specific sulfonamides” (Bayer CropScience GmbH, priority 2003, published 2006)

Columns and labels:
Veronica hederifolia = test: Herbicidal action (field trials), visual scoring of harmful plant; assay type: in vivo; conditions: field trial, natural outdoor conditions; visual score about 4 weeks after application vs untreated control (100% = all plants died), mean of 2-4 plots; application rate g of active substance/hectare: A 5, B 30, C 250, A + B 5 + 30, A + B + C 5 + 30 + 250
Experimental: The seeds or rhizome pieces of the harmful plants and the useful plants were laid out or were present in the soil, and they were grown under natural outdoor conditions. Treatment with the active compounds or active compound combinations was carried out […] before and/or after the emergence of the plants, generally at the 2- to 4-leaf stage, in various dosages using a water application rate of 100 to 400 l/ha (converted).
After the application (about 4 weeks after the application), the effectiveness of the active compounds or active compound combinations was scored visually by comparing the treated plots to untreated control plants. During scoring, damage and development of all above-ground parts of plants was assessed. Scoring was carried out using a percentage scale (100% effect=all plants had died; 50% effect=50% of the plants and the green parts of the plants have died; 0% effect=no effect observed=like control plant). In each case, the mean score of 2-4 plots was calculated.
The results are shown in the table below; the effect of the individual application of active compounds (A+B) and C being stated in brackets.

Triticum aestivum = assay type: in vivo; conditions: field trial, natural outdoor conditions; visual score about 4 weeks after application vs untreated control, mean of 2-4 plots; application rate g of active substance/hectare: A 5, B 30, C 250, A + B 5 + 30, A + B + C 5 + 30 + 250
Experimental: The seeds or rhizome pieces of the harmful plants and the useful plants were laid out or were present in the soil, and they were grown under natural outdoor conditions.
During scoring, damage and development of all above-ground parts of plants was assessed. […] In each case, the mean score of 2-4 plots was calculated.

| SMILES | Veronica hederifolia % effect (Veronica hederifolia) [%] | Triticum aestivum % damage (Triticum aestivum) [%] |
| --- | --- | --- |
| Cc1cc(Cl)ccc1O[C@H](C)C(=O)O [mecoprop-P, (R)-2-(4-chloro-o-tolyloxy)propionic acid] | 35 | 0 |
| COC(=O)c1ccc(CNS(C)(=O)=O)cc1S(=O)(=O)NC(=O)Nc1nc(OC)cc(OC)n1 [mesosulfuron-methyl, methyl 2-[3-(4,6-dimethoxypyrimidin-2-yl)ureidosulfonyl]-4-methanesulfonaminomethyl-benzoate] | 7 | 2 |
| CCCOc1nn(C(=O)[N-]S(=O)(=O)c2ccccc2C(=O)OC)c(=O)n1C.[Na+] [propoxycarbazone-sodium] | 30 | 3 |
